Experimental data as given in patent US20160362463A1, “Pharmaceutical composition inhibiting interaction between MZF-1 and Elk-1” (China Medical University, priority 2015, published 2016).
Read-outs that look alike come from different tables or passages of the source. No end group written: not given here.

Legend:
[1] = tested on: Hs578T and MDA-MB-231 cells; experiment: Immunoblotting of protein levels in TAT-fused peptide-treated cells; type: cell-based, human; conditions: three days post-treatment
Description: (§1) The TAT-fused peptides were designed such that the TAT moiety corresponds to amino acid residues 48-57 of the HIV TAT protein, the MZF-160-72 moiety corresponds to residue 60-72 of the human MZF-1 protein and the Elk-1145-157 moiety corresponds to residues 145-157 of the human Elk-1 protein. The TAT and MZF-1/Elk-1 moieties were linked by three glycine linker residues. The TAT-fused peptide MZF-1 normal fragment (60-72; […] as SEQ ID NO: 57), MZF-1 mutant fragment (60-72; […] as SEQ ID NO: 58), Elk-1 normal fragment (145-157; […] as SEQ ID NO: 59), and Elk-1 mutant fragment (145-157; […] as SEQ ID NO: 60) were synthesized by MDBio, Inc. (Taipei, Taiwan). For transduction of the TAT fusion proteins cells were cultured to 50-60% confluence. The culture medium was removed and replaced with fresh, serum-free medium, followed by the addition of the TAT fusion proteins at the indicated concentrations. Three days post-treatment the cells were used for migration assays and western blotting.

MZF-1/Elk-1 interaction = molecular target: T1, MZF-1/Elk-1 interaction (Homo sapiens, UniProt P19419+P28698); experiment: Co-immunoprecipitation of MZF-1 and Elk-1 in HEK-293 lysates with added TAT-fused peptides; type: binding; conditions: 50, 100 and 150 nmol peptide added to lysates, overnight at 4° C.
T1 construct: FLAG-Elk-1; 1-428; MZF-1-c-Myc; 1-485; His (from the myc-His vector) (C); expressed in transfected cells; host or cells: HEK-293 (lysates)
T1 sequence (P28698 1-485 isoform P28698-2, one chain of several): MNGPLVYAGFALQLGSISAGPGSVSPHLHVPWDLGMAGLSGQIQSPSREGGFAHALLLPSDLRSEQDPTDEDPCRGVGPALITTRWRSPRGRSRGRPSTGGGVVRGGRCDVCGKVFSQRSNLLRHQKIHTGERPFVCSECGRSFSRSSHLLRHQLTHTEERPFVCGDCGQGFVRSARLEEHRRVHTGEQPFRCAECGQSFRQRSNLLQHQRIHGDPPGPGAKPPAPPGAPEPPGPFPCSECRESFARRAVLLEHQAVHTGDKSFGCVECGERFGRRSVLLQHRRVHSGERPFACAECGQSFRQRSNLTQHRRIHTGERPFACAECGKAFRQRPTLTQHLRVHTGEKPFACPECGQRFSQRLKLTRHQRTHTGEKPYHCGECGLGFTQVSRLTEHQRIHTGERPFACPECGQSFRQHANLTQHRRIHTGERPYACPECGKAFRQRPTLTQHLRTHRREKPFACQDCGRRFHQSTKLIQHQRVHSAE
Description: HEK-293 cells were transfected with empty vector, FLAG-Elk-1, MZF-1-c-Myc, FLAG-MZF-1 or Elk-1-cMyc construct. ‘+’ indicates the presence of each item and ‘-’ indicates their absence. Different concentrations (50, 100 and 150 nmol) of TAT-fused peptides (normal or mutant) were then added to the lysates and incubated overnight at 4° C. and then subjected to immunoprecipitation with anti-c-Myc antibody, followed by immunoblotting against FLAG and c-Myc. Lysates of HEK-293 cells transfected with FLAG-Elk-1 or FLAG-MZF-1 vector indicated as a “Input”.

[2] = tested on: Hs578T and MDA-MB-231 cells; experiment: Cell migration assay after treatment with TAT-fused peptides; type: cell-based, human; conditions: 3 days after addition of the peptides
Description: The cell migration assay was performed 3 days after the addition of the peptides to the cells.
as §1
The migration assay was performed using a 48-well Boyden chamber (Neuro Probe) plated with 8-μm pore size polycarbonate membrane filters (Neuro Probe). […] The migratory phenotypes were determined by counting the cells that migrated to the lower side of the filter through microscopy at 200× magnification.

[3] = molecular target: T2, Elk-1 and MZF-1 DNA-binding activity at the PKCα promoter (Homo sapiens, UniProt P19419+P28698); experiment: EMSA of Elk-1 and MZF-1 binding to PKCα promoter probe, nuclear extracts of transfected HEK-293 cells; type: biochemical; conditions: biotin-labeled WT PKCα promoter probe
T2 construct: Primers and restriction enzyme (R.E.) sites for the full-length and truncated MZF-1, Elk-1; expressed in transfected cells; host or cells: HEK-293 (nuclear extracts)
T2 sequence (P28698 1-485 isoform P28698-2, one chain of several): as above
Description: The biotin-labeled WT oligonucleotide probes were incubated with the indicated concentration of nuclear extracts of the different-treated HEK-293 cells, which were transfected with empty vector, Elk-1, MZF-1, MZF-160-72 or mutant MZF-160-72 and the reactions were resolved on a nondenaturing polyacrylamide gel. DNA-protein complexes are indicated by the black arrow-head.
The biotin-labeled wild-type oligonucleotide probes were incubated with the indicated concentration of nuclear extracts of the different-treated HEK-293 cells, which were transfected with empty vector, Elk-1, MZF-1, Elk-1145-157 or mutant Elk-1145-157.
EMSA analysis was performed using a LightShift™ chemiluminescent EMSA kit (Pierce). 15 μg of nuclear extract was used for each EMSA analysis. […] The membrane was immediately cross-linked at 120 mJ/cm^2 using an UV transilluminator and then analyzed via chemiluminescence according to the manufacturer's instructions.

Elk-1 = molecular target: T3, Elk-1 (Homo sapiens, UniProt P19419); experiment: Co-immunoprecipitation of MZF-1-c-Myc fragments with FLAG-Elk-1 in transfected HEK-293 cells; type: binding; conditions: FLAG-Elk-1 plus c-Myc fragment
T3 construct: FLAG-Elk-1; 1-428; expressed in transfected cells; host or cells: HEK-293
T3 sequence (P19419 1-428): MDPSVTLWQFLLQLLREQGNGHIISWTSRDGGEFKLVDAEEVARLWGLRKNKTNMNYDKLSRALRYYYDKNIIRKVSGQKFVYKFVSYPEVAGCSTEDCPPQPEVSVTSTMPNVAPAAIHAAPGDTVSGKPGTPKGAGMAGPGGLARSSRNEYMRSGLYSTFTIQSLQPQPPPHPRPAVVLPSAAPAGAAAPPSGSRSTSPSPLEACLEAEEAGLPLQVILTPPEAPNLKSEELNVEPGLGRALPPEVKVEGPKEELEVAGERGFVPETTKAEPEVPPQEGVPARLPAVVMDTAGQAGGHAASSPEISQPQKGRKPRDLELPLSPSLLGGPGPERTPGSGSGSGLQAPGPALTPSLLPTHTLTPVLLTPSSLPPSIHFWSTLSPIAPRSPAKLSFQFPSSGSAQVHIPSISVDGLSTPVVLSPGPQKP
Description: Red bands indicate the fragments that bound Elk-1 as present in the co-immunoprecipitation assay (lower panel). HEK-293 cells were transfected with 5 μg FLAG-Elk-1 and either empty vector or the indicated MZF-1-c-Myc fragment. The c-Myc-fused peptides were Immunoprecipitation by c-Myc monoclonal antibody and then Immunoblotting with the anti-FLAG antibodies. Lysates of HEK-293 cells transfected with the FLAG-Elk-1 only were also Immunoblotting as a control (Input).
MZF-1 contains an acidic domain (amino acids 60-72) with six aspartates or glutamates upstream of the zinc finger regions. To identify the specific residues through which MZF-1 interacts with Elk-1 we designed various protein fragments containing only the relevant interacting domains for co-immunoprecipitation assays (FIG. 14, top). The full-length MZF-1 and MZF-11-72, MZF-11-141, and MZF-160-72 fragments (all contain the acidic domain) all bound Elk-1 (FIG. 14, lower panel) but not MZF-11-60 or MZF-173-485.

Hs578T cells = experiment: MTT cell viability with anti-cancer drugs, Hs578T cells; type: cell-based, human
MDA-MB-231 cells = experiment: MTT cell viability with anti-cancer drugs, MDA-MB-231 cells; type: cell-based, human; conditions: read-out: 50% inhibitory concentration (IC50), cell viability
Description: The level of multidrug resistance protein permeability glycoprotein (P-gp) was determined by upper panel. Cell growth was determined using the MTT assay 2 days after treatment (lower panel).
Cell proliferation was analyzed using the yellow tetrazolium (MTT) assay. Cells were seeded in 24-well plates at 1×10^4 cells/well and cultured in DMEM containing 10% FCS at 37° C. overnight. Cells were treated with or without various plasmids and incubated for 24 or 48 h. After incubation, the medium was replaced with fresh medium, and the cells were incubated with 1 mg/ml MTT for 3 h before being dissolved in 1 ml of DMSO for 30 min. The optical density at 570 nm was measured using a spectrophotometer.
To determine if MZF-160-72 peptide-mediated decrease in P-gp expression sensitizes breast cancer cells to chemotherapeutic agents, MZF-160-72-expressing MDA-MB-231 stable cells were treated with acriflavine and cisplatin (commonly used to treat breast cancer-insert) and their cell viability measured.

[4] = molecular target: T4, FLAG-Elk-1 (amino acids 1-428) (human, UniProt P19419 1-428); experiment: co-immunoprecipitation (anti-c-Myc IP, anti-FLAG blot), HEK-293 cells
T4 construct: range 1-428; Full-length Elk-1 expressed in HEK-293 cells; not shown: FLAG tag
T4 sequence (looked up): T3 sequence (P19419 1-428)

[5] = molecular target: T5, FLAG-MZF-1 (amino acids 1-485) (human, UniProt P28698-2 1-485); experiment: co-immunoprecipitation, HEK-293 cells
T5 construct: range 1-485; Full-length MZF-1 expressed in HEK-293 cells; not shown: FLAG tag

[6] = Hs578T cells before MZF-160-72 expression (parental)
[7] = MZF-160-72-expressing Hs578T cells
[8] = MDA-MB-231 cells before MZF-160-72 expression (parental)
[9] = MZF-160-72-expressing MDA-MB-231 stable cells

In the case of “YGRKKRRQRRRGGGDEDTPDQESRLDS (listed as Homo sapiens) [TAT-MZF-160-72, TAT-fused peptide MZF-1 normal fragment (60-72), three glycine linker residues]”, the “levels of EMT-related (PKCα, Slug and Vimentin) proteins” value [1] is reported as “noticeably increased”, the “levels of MET-related (E-cadherin) proteins” value [1] is reported as “decreased” and the “binding of MZF-1 to Elk-1 and vice versa (co-immunoprecipitation)” value (MZF-1/Elk-1 interaction) is reported as “reduced the binding of MZF-1 to Elk-1 and vice versa in a dose-dependent manner”. The cell migration [2] was “reduced cell migration”.

With “Elk-1145-157: Heparin-binding domain fragment, amino acids 145-157 of human Elk-1; expressed as c-Myc-fused fragment (LARSSRNEYMRSG; also: c-Myc tag fusion; listed as Homo sapiens)” the “Elk-1 and MZF-1 DNA-binding activity (EMSA)” value [3] was “decreased Elk-1 and MZF-1 DNA-binding activity in a dose-dependent manner”.

In the case of “mutant MZF-160-72: MZF-1 60-72 fragment with aspartates D61, D67, D70 and D72 changed to uncharged alanine”, the “binding to Elk-1 (co-immunoprecipitation)” value (Elk-1) is reported as “substantially decreased” and the “Elk-1 and MZF-1 DNA-binding activity (EMSA)” value [3] is reported as “did not affect their binding activity”.

With “YGRKKRRQRRRGGGLARSSRNEYMRSG (listed as Homo sapiens) [TAT-Elk-1145-157, TAT-fused peptide Elk-1 normal fragment (145-157), three glycine linker residues]” the “levels of EMT-related (PKCα, Slug and Vimentin) proteins” value [1] was “noticeably increased”, the “levels of MET-related (E-cadherin) proteins” value [1] was “decreased” and the “binding of MZF-1 to Elk-1 and vice versa (co-immunoprecipitation)” value (MZF-1/Elk-1 interaction) was “reduced the binding of MZF-1 to Elk-1 and vice versa in a dose-dependent manner”. The cell migration [2] was “reduced cell migration”.

Work on acriflavine yielded an IC50 (Hs578T cells; [6]) of 2.56 µM, an IC50 (Hs578T cells; [7]) of 1.33 µM and an IC50 (MDA-MB-231 cells; [8]) of 2.43 µM. It also gave an IC50 (MDA-MB-231 cells; [9]) of 1.49 µM.

`N.N.[Cl][Pt][Cl]` [cisplatin] showed an IC50 (Hs578T cells; [6]) of 28 µM, an IC50 (Hs578T cells; [7]) of 21.1 µM and an IC50 (MDA-MB-231 cells; [8]) of 23.7 µM. It also gave an IC50 (MDA-MB-231 cells; [9]) of 16.2 µM.

B1: MZF-1-c-Myc fragment, amino acids 1-60 (other, human, UniProt P28698-2 1-60, looked up)
chain: MNGPLVYAGFALQLGSISAGPGSVSPHLHVPWDLGMAGLSGQIQSPSREGGFAHALLLPS
notes: range 1-60; Expressed in HEK-293 cells; also called MZF-11-60; not shown: c-Myc(-His) tag from the pcDNA3.1/myc-His vector
B1: no binding [4].

B2: Elk-1-c-Myc fragment, amino acids 145-157 (Mutant) (peptide, UniProt P19419 145-157, looked up)
chain: LAASSANEYMASG
notes: not shown: c-Myc(-His) tag from the pcDNA3.1/myc-His vector
B2: no binding [5].
